Key:
[1] = Storage stability and rheological characterization of gel; type: physicochemical; details: 50 μM, 25°C in the dark
Method: All the semi-solid formulations were prepared adding at the pre-gel solution reported above hydroxyethyl cellulose (HEC) (1.8% w/v). In all samples, 0.2% v/v propionic acid was added to aqueous solution in order to preserve form bacteria and mold contamination. HEC was dispersed in the pre-gel solution at 25°C under magnetic stirring, overnight. Gel containing compound 2 was stored at 25°C in the dark. At predetermined data points, the formulations were visually inspected to evidence aggregate formations and the pH was measured. Rheological evaluations were performed using a rotational viscometer (Bohlin Model Visco 88, Bohlin Instruments, UK). Appropriate measuring spindles (C14 DIN) were used during viscosity measurements. Samples were loaded into the cup and allowed to equilibrate for 10 min at desired temperature (25 ± 0.5°C) and apparent viscosity (mPa s) was determined using a shear rate of 552 s^-1 over a 1 month period.

HPV-16 PsVs = assay: HPV-16 inhibition assay in HeLa cells; type: cell-based; details: up to 50 μM
Method: Plasmids and 293TT cells used for pseudovirus (PsV) production were kindly provided by John Schiller (National Cancer Institute, Bethesda, MD). 293TT cell line, derived from human embryonic kidney cells transformed with the simian virus 40 (SV40) large T antigen, was cultured in DMEM (Gibco-BRL, Gaithersburg, MD) supplemented with heat inactivated 10% FCS (Gibco- BRL), Glutamax-I 1% (Invitrogen, Carlsbad, CA) and nonessential amino acids 1% (Sigma Aldrich, Steinheim, Germany). HPV-16 PsVs were produced as described in Cagno et al 2015. 293TT cells were transfected with plasmid expressing the papillomavirus major and minor capsid proteins (L1 and L2, respectively), together with a reporter plasmid expressing GFP. Capsids were allowed to mature overnight in cell lysate; the clarified supernatant was then loaded on top of a density gradient of 27 to 33 to 39% Optiprep at room temperature for 3 h. The material was centrifuged at 28000 rpm for 16 h at 4°C in an SW41.1 rotor (Beckman Coulter, Inc., Fullerton, CA) and then collected by bottom puncture of the tubes. […] The L1 protein content of PsV stocks was determined by comparison with bovine serum albumin standards in Coomassie-stained SDS-polyacrylamide gels. […]

NL4.3 HIV strain = assay: Antiviral activity in microbicide gel formulation, transwell experiment, TZM-bl cells; type: cell-based, HIV-1; details: Human immunodeficiency virus 1, gel at 50%
Method: All the semi-solid formulations were prepared adding at the pre-gel solution reported above hydroxyethyl cellulose (HEC) (1.8% w/v). In all samples, 0.2% v/v propionic acid was added to aqueous solution in order to preserve form bacteria and mold contamination. HEC was dispersed in the pre-gel solution at 25°C under magnetic stirring, overnight.
Antiviral activity of compound 2 on NL4.3 HIV strain was evaluated also in a gel formulation. To reproduce more physiological conditions, TZM-bl cells were seeded into transwells and the gel was applied onto the cell monolayer at 50% fixed concentration with serial drug dilutions as previously described. Briefly, 4x10^4 TZM-bl cells were plated into each transwell apical chamber of a 24-well plate (pore size 3μm and diameter 6,5 mm, Corning) containing medium in the bottom plate and cultured overnight. For efficacy testing, 60 TCID50 of virus was added to each apical well in the presence of 100 μL of compound 2 gel, tenofovir gel or blank gel at the final drug concentrations of 25μM, 10 μM and 5 μM. Inhibition of infection was determined as previously based on deviations from blank gel.

HIV-1 AD8 = assay: Inhibition of antiviral activity by purified bovine serum albumin (TZM-bl, AD8); type: cell-based
Method: To confirm the binding of compound 2 to serum albumin, infection was performed in presence of different concentrations of purified bovine serum albumin (BSA, Sigma Aldrich) starting from the concentration that is usually present in FBS serum (35 mg/mL, 1X) and increasing to a five-fold concentration (175 mg/mL) up to a ten-fold concentration (350 mg/mL). […] After one hour, the mixture was added to 40.000 TZM-bl cells/well plated in DMEM supplemented with 50 μg/mL penicillin, 50 μg/mL streptomycin, 30 μg/mL DEAE-dextran and 10% FBS in a 96-well plate. After two days the infection was evaluated through a CPRG assay.

[2] = test system: HSV-2 acyclovir resistant; assay: HSV-2 acyclovir resistant plaque reduction assay on Vero cells; type: cell-based; details: Human alphaherpesvirus 2, Vero, read-out: HSV-2 acyclovir resistant EC50
Method: Clinical isolates of HSV-1 and HSV-2 were kindly provided by Prof. M. Pistello, University of Pisa, Italy. HSV-1 and HSV-2 strains were propagated and titrated by plaque assay on Vero cells. A HSV-2 strain with phenotypic resistance to acyclovir was generated by serial passage in the presence of increasing concentrations of acyclovir, as previously described.
The effect of the rhodanine derivatives on HSV infection was evaluated by plaque reduction assay. Vero cells were pre-plated 24 h in advance in 24-well plates at a density of […]. Increasing concentrations of compounds were mixed with HSV-2 (MOI 0.001 pfu/cell) or HSV-2 acyclovir resistant (MOI 0.001) or HSV-1 (MOI 0.0005) or and incubated for 1 hour at 37°C. The mixtures were subsequently added to the cells, which were then incubated at 37°C for 2 h. […] After further incubation at 37°C for 24 h (HSV-2 and HSV-2 R Acy) or 48 h (HSV-1), cells were fixed and stained with 0.1% crystal violet in 20% ethanol and viral plaques counted. […] The selectivity index (SI) was calculated by dividing the CC50 by the EC50 value.
All results are presented as the mean values from three independent experiments. The EC50 values for inhibition curves were calculated by regression analysis using the software GraphPad Prism (GraphPad Software, San Diego, California, U.S.A.) by fitting a variable slope-sigmoidal dose–response curve. […]

[3] = test system: recombinant HIV-1 integrase Q148H, G140S; assay: Antiviral activity on human CD4+ T lymphocytes, integrase mutant Q148H, G140S; type: cell-based; details: Human immunodeficiency virus 1, read-out: Q148H, G140S EC50

Cc1ccc(CCN2C(=O)/C(=C/c3ccc(-c4ccc(C(=O)O)c(O)c4)o3)SC2=S)cc1 [Compound 9b, (Z)-2-hydroxy-4-(5-((3-(4-methylphenethyl)-4-oxo-2-thioxothiazolidin-5-ylidene)methyl)furan-2-yl)benzoic acid]
melting point: 258 °C (dec.)

O=C(O)c1ccc(-c2ccc(/C=C3\SC(=S)N(CCCc4ccccc4)C3=O)o2)cc1O [Compound 9c, (Z)-2-hydroxy-4-(5-((4-oxo-3-(3-phenylpropyl)-2-thioxothiazolidin-5-ylidene)methyl)furan-2-yl)benzoic acid]
melting point: 248 °C (dec.)

CCc1ccc(CCN2C(=O)/C(=C/c3ccc(-c4ccc(C(=O)O)c(O)c4)o3)SC2=S)cc1 [Compound 9d, (Z)-4-(5-((3-(4-ethylphenethyl)-4-oxo-2-thioxothiazolidin-5-ylidene)methyl)furan-2-yl)-2-hydroxybenzoic acid]
melting point: 273 °C (dec.)

O=C(O)c1ccc(-c2ccc(/C=C3\SC(=S)N(CCc4ccc(F)cc4)C3=O)o2)cc1O [Compound 9a, (Z)-4-(5-((3-(4-fluorophenethyl)-4-oxo-2-thioxothiazolidin-5-ylidene)methyl)furan-2-yl)-2-hydroxybenzoic acid]
melting point: 292 °C (dec.)

O=C(O)c1ccc(-c2ccc(/C=C3\SC(=S)N(Cc4ccc(Cl)cc4)C3=O)o2)cc1O [Compound 2]
recovery after 1 month of storage [1]: about 100% | antiviral activity on HPV-16 (HPV-16 PsVs): without any antiviral activity on HPV-16 | EC50 (NL4.3 HIV strain): 13 µM | reduction of antiviral activity with physiological BSA, compound at 400 nM (HIV-1 AD8; 1X = 35 mg/mL BSA, 400 nM): about 50% | loss of antiviral activity with physiological BSA, compound at 2 μM (HIV-1 AD8; 1X = 35 mg/mL BSA, 2 μM): 20% | antiviral activity with BSA concentration increased 5 to 10 folds (HIV-1 AD8; 175-350 mg/mL BSA, 400 nM): complete loss of activity | EC50 [2]: 0.0107 ± 0.00634 µM | EC50 [3]: 0.009 ± 0.002 µM

O=C(O)c1ccc(-c2ccc(/C=C3\SC(=S)N(Cc4ccc(F)cc4)C3=O)o2)cc1O [Compound 1]
antiviral activity on HPV-16 (HPV-16 PsVs): without any antiviral activity on HPV-16

Source: publication PMC5988308, “Rhodanine derivatives as potent anti-HIV and anti-HSV microbicides” (PLoS ONE, 2018)
